Reference: article PMC6686011, “Ruthenium(II) complexes with 6-methyl-2-thiouracil selectively reduce cell proliferation, cause DNA double-strand break and trigger caspase-mediated apoptosis through JNK/p38 pathways in human acute promyelocytic leukemia cells” (Scientific Reports, 2019)

Assays:
[1] = test system: BAD KO SV40 MEF (immortalized mouse embryonic fibroblast with the BAD gene knocked out); assay: Cytotoxicity, alamar blue assay; format: cell-based; conditions: Mus musculus, MEF, 72 h, read-out: IC50, BAD KO SV40 MEF cell line
Method: (§1) Cytotoxicity was measured using alamar blue assay and was performed following the procedure that was described previously[21],[22]. Briefly, cells were inserted in 96-well plates and incubated overnight. Then, the complexes were dissolved in dimethyl sulfoxide (DMSO, LGC Biotechnology, São Paulo, SP, Brazil) and added to each well and incubated for 72 h. […] Before the end of treatment (4 h for cell lines and 24 h for PBMC), 20 μL of a stock solution (0.312 mg/mL) of alamar blue (resazurin, Sigma-Aldrich Co.) were added to each well. Absorbance at 570 nm and 600 nm was measured using SpectraMax 190 Microplate Reader (Molecular Devices, Sunnyvale, CA, USA).

[2] = test system: WT SV40 MEF (wild-type immortalized mouse embryonic fibroblasts); assay: Cytotoxicity, alamar blue assay; format: cell-based; conditions: Mus musculus, MEF, 72 h, read-out: IC50, WT SV40 MEF cell line
Method: as §1

[3] = test system: SCC-4 (human oral squamous cell carcinoma); assay: Cytotoxicity, alamar blue assay; format: cell-based; conditions: Homo sapiens, SCC-4; alamar blue, 72 h; read-out: IC50 and 95% CI, SCC-4
Method: as §1

[4] = test system: HL-60 (human acute promyelocytic leukemia); assay: Cytotoxicity, alamar blue assay; format: cell-based; conditions: Homo sapiens, HL-60; alamar blue, 72 h; read-out: IC50 and 95% CI, HL-60
Method: as §1

HL-60 cells [5] = assay: Apoptosis quantification, annexin V-FITC/PI flow cytometry; format: cell-based, human
Method: Shortly, cells were washed twice with saline solution and resuspended in 100 μL of binding buffer plus 5 μL of propidium iodide (PI) and 5 μL of FITC Annexin V. Then, cells were gently mixed by vortexing and incubated for 15 min at room temperature in the dark. Finally, 400 μL of binding buffer was added to each tube, and the cell fluorescence was determined by flow cytometry, as described above. Percentage of viable, early apoptotic, late apoptotic and necrotic cells were measured. […] Cells were then analyzed by FITC Annexin V Apoptosis Detection assay as described above.

[6] = test system: PBMC (human peripheral blood mononuclear cells); assay: Cytotoxicity, alamar blue assay; format: cell-based; conditions: Homo sapiens, PBMC, non-cancer cells, 72 h, read-out: IC50 and 95% CI, PBMC
Excerpt: HL-60 (human acute promyelocytic leukemia), K-562 (human chronic myelogenous leukemia), HCT116 (human colon carcinoma), HepG2 (human hepatocellular carcinoma), HSC-3 (human oral squamous cell carcinoma), SCC-9 (human oral squamous cell carcinoma), B16-F10 (mouse melanoma), MRC-5 (human lung fibroblast), WT SV40 MEF (wild-type immortalized mouse embryonic fibroblast) and BAD KO SV40 MEF (BAD gene knockout immortalized mouse embryonic fibroblast) cell lines were obtained from American Type Culture Collection (ATCC, Manassas, VA, USA). Human peripheral blood mononuclear cells (PBMC) were isolated using standard Ficoll density gradient from heparinized blood collected from 20- to 35-year-old, non-smoker healthy donors with informed consent (number 031019/2013) approved by Human Ethics Committee of Gonçalo Moniz Institute from Oswaldo Cruz Foundation (IGM-FIOCRUZ/BA), and all experiments were performed in accordance with relevant guidelines and regulations. Cells were cultured as recommended by ATCC guidelines and a mycoplasma stain kit (Sigma-Aldrich) was used to validate the use of cells free from contamination. Cell viability in all experiments was examined using the trypan blue exclusion (TBE) assay. Over 90% of the cells were viable at the beginning of the culture.
as §1

HL-60 cells [7] = assay: Morphological analysis (May-Grunwald-Giemsa staining, light scattering); format: cell-based, human; conditions: HL-60, 12 and 24 h; DOX 1 µM
Method: To cell morphology evaluation, slides were prepared using cytospin and stained with May-Grunwald-Giemsa. Morphological changes were assessed by light microscopy (Olympus BX41, Tokyo, Japan) using Image-Pro software (Media Cybernetics, Inc. Silver Spring, USA). Light scattering features were determined by flow cytometry. At least 10^4 events were recorded per sample using a BD LSRFortessa cytometer along with BD FACSDiva Software (BD Biosciences, San Jose, CA, USA) and Flowjo Software 10 (Flowjo LCC, Ashland, OR, USA). Cellular debris was omitted from the analysis.

[8] = Toxicological evaluation in xenograft mice; format: in vivo, C.B-17 SCID mice; conditions: doxorubicin 0.1 mg/kg
Method: To assess toxicological aspects, mice were weighed at the beginning and at the end of the experiment as described previously by Rodrigues et al.[26]. […] Hematological analysis was performed using the Advia 60 hematology system (Bayer, Leverkusen, Germany). Livers, kidneys, lungs and hearts were removed, weighed and examined for any signs of macroscopic lesions, color changes and/or hemorrhages. After macroscopic examination, tumors, livers, kidneys, lungs and hearts were fixed in 4% formalin buffer and embedded in paraffin. Tissue sections were stained with hematoxylin/eosin staining, and a pathologist performed the histological analyses under optical microscopy.

HL-60 cells [9] = assay: Mitochondrial transmembrane potential, rhodamine 123; format: cell-based, human; conditions: HL-60, 24 h; DOX 1 µM
Method: Mitochondrial transmembrane potential was determined by retention of dye rhodamine 123 as described previously. Briefly, cells were incubated with rhodamine 123 (5 μg/mL, Sigma-Aldrich Co.) at room temperature for 15 min in dark and washed with saline solution. Cells were incubated again in saline solution for more 30 min in dark and cell fluorescence was determined by flow cytometry as described above.

HL-60 cells [10] = assay: Trypan blue exclusion assay; format: cell-based, human; conditions: HL-60, 24 h, 1 μM
Method: The number of viable cells and non-viable (take up trypan blue) were counted by TBE method. Shortly, 90 μL was removed from the cell suspension and 10 μL of trypan blue (0.4%) was added. Cell counting was performed using a light microscope with a neubauer chamber.

HL-60 cell xenografts = assay: Human myeloid leukemia xenograft model; format: in vivo, C.B-17 SCID mice; conditions: 0.1 mg/kg intraperitoneal once a day for 13 consecutive days
Method: Fifty six specific-pathogen-free (SPF) C.B-17 severe combined immunodeficient (SCID) mice (females, 23–26 g) were used in this study. The animals were obtained and maintained at animal facilities from Gonçalo Moniz Institute-FIOCRUZ (Salvador, Bahia, Brazil), and housed in cages with free access to food and water, and kept under a 12:12 h light-dark cycle (lights on at 6:00 a.m.). The animals were treated according to ethical principles for animal experimentation of SBCAL (Brazilian Association of Laboratory Animal Science), Brazil. Experimental protocol have been approved (number 06/2015) by Animal Ethics Committee of Gonçalo Moniz Institute-FIOCRUZ (Salvador, Bahia, Brazil).
Human myeloid leukemia xenograft model was carry out as described previously by Rodrigues et al.[26] with minor modifications. HL-60 cells (2.5 × 10^7 cells/500 µL) were implanted subcutaneously into the left front armpit of the mice. […] When the tumors reached 100 to 200 mm^3 (22 days after HL-60 cells injection), the animals were treated through the intraperitoneal route (200 µL per animal) once a day for 13 consecutive days. One day after the end of the treatment, the animals were anesthetized, and peripheral blood samples were collected from brachial artery. Animals were euthanized by anesthetic overdose, and tumors were excised and weighed.

COc1cccc2c1C(=O)c1c(O)c3c(c(O)c1C2=O)C[C@@](O)(C(=O)CO)C[C@@H]3O[C@H]1C[C@H](N)[C@H](O)[C@H](C)O1 [doxorubicin, reference compound] gave an IC50 [1] of 410 nM, an IC50 [2] of 40 nM and an IC50 [3] of 1430 nM. For the same compound, the IC50 [4] was 20 nM, the “Apoptotic cells, in words” value (HL-60 cells [5]; HL-60, 12 and 24 h, DOX 1 µM) was “induced apoptosis” and the “Apoptosis on cotreatment with pan-caspase inhibitor Z-VAD(OMe)-FMK, in words” value (HL-60 cells [5]; HL-60, 2 h pre-treatment 50 µM Z-VAD(OMe)-FMK, then 24 h) was “led to apoptosis through caspases pathways”. For the same compound, the IC50 [6] was 5170 nM, the “Cell morphology, May-Grunwald-Giemsa staining” value (HL-60 cells [7]) was “presented changes associated with apoptosis” and the Kidney histopathology ([8]; complex 1 20 and 40 mg/kg) was “Coagulation necrosis was observed in renal tubules”. For the same compound, the Lung histopathology ([8]; complex 1 20 and 40 mg/kg) was “tumor nodules were observed only in one animal”, the Body weight ([8]; mice bearing HL-60 cells, 13 days) was “decreased body weight” and the “Mitochondrial transmembrane potential, in words” value (HL-60 cells [9]) was “induced depolarization of mitochondrial transmembrane potential”. For the same compound, the “Reduction of the number of viable cells” value (HL-60 cells [10]) was “reduced the number of viable cells” and the “Reduction of tumor weight” value (HL-60 cell xenografts) was 62.0%.
